The text below walks through data of patent EP3501490A1, “COMPOSITION FOR EXTERNAL USE THAT INCLUDES PTEROSTILBENE GLYCOSIDE” (Tomoike Industrial (H.K.) Limited, priority 2016, dated 2018).

Test [1] deals with T1, Tyrosinase (Cat. No. T3824, SIGMA) (Agaricus bisporus, UniProt C7FF04).
T1 construct: purchased SIGMA T3824
The experiment in a line: In vitro tyrosinase inhibition experiment (Experimental Example 3). The test is classed as biochemical. The following applies: fold more excellent than the aglycone pterostilbene, based on IC50 values of Fig. 3. As for the experimental part: The tyrosinase inhibitory effect of pterostilbene monoglucoside was analyzed (IC50 values were measured) based on a generally known method (e.g., Expert Opin Ther Pat. 2016; 26(3): 347-62). Tyrosinase (Cat. No. T3824, SIGMA) was used as tyrosinase. Further, pterostilbene (produced by Tokyo Chemical Industry Co., Ltd.; A in the figure), the pterostilbene monoglucoside above (B in the figure), and arbutin as a positive control (C in the figure) were used.

Test [2] deals with type IV collagen gene. The experiment in a line: Type IV collagen mRNA expression in human skin cells by microarray method (Experimental Example 1). The test is classed as cell-based. The following applies: 120 h, cultured for 5 days, hTERT-immortalized human skin cells, read-out: increase of the expression amount of type IV collagen gene compared to the negative control experiment. As for the experimental part:
Human skin cells were immortalized by introducing the hTERT gene and acclimated in a predetermined medium, Prigrow III (APB). Thereafter, the pterostilbene monoglucoside (50 µM) was added to the conditioned medium and cultured for 5 days in a 5% CO2 environment at 37°C.
RNA was collected from the cells after culturing, and changes in the amount of type IV collagen mRNA expression were analyzed by microarray method. […] A negative control experiment was also performed in which the pterostilbene monoglucoside was not added to the conditioned medium.

Test [3] has as its system type IV collagen. The experiment in a line: Type IV collagen protein expression in three-dimensional skin model by western blotting and densitometry (Experimental Examples 2 and 5). In kind it is cell-based. The note with it: Homo sapiens, 168 h; 25 µM and 100 µM final concentrations, 7 days; at most (maximum), concentration dependent; α-tubulin internal standard; read-out: increase of the amount of type IV collagen expression in the three-dimensional skin model compared to the control.
Protocol: The three-dimensional skin model produced following the protocol of the kit was acclimated in the medium supplied with the kit.
The cells after culturing were collected, lysates thereof were subjected to western blotting using an anti-human collagen antibody (COL4A3BP; Abcam), and the amount of type IV collagen protein expression was analyzed. Further, western blotting using an anti-α-tubulin antibody as the internal standard was also performed, and the obtained image data was subjected to densitometry analysis.
These solutions were added to three-dimensional skin models and cultured for 7 days. The lysates of cells after culturing were subjected to western blotting using an anti-human collagen antibody, and the amounts of type IV collagen expression in the cells were analyzed. As a negative control (Ctrl), an experiment was performed in which a DMSO solution was added alone to the three-dimensional skin model.
Further, western blotting using an anti-α-tubulin antibody as the internal standard was also performed, and the obtained image data was subjected to densitometry analysis.

T1 sequence (C7FF04 2-392 limits assumed): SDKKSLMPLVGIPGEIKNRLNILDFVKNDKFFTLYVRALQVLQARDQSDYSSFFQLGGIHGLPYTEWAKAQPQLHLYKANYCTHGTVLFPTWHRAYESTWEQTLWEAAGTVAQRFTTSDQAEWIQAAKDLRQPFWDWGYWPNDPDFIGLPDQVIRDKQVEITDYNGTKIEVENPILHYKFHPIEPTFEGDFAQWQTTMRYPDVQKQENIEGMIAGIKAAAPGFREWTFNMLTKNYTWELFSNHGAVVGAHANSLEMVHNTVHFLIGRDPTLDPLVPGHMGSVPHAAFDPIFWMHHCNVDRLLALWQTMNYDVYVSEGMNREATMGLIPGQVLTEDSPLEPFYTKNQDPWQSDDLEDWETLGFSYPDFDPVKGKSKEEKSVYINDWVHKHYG

As for `COc1cc(/C=C/c2ccc(OC3O[C@H](CO)[C@@H](O)[C@H](O)[C@H]3O)cc2)cc(OC)c1` (stereo partly drawn) [pterostilbene monoglucoside], the “tyrosinase inhibitory effect relative to pterostilbene (comparison of IC50 values)” value in test [1] was about 5.5 times. In test [2], the fold induction at 50 µM is about 1.35. Besides, the maximal fold induction in test [3] is about 2.5.
